We go through 6 compounds from ChEMBL document CHEMBL5335811, “2-Phenylcyclopropylmethylamine (PCPMA) as a privileged scaffold for central nervous system drug design” (Bioorg Med Chem Lett, 2024).

pEC50, pKi: −log10 of the molar value.

In data set [1] the target is T1, 5-hydroxytryptamine receptor 2A (Homo sapiens, UniProt P28223). The data set is described as follows: Agonist activity at 5HT2A receptor (unknown origin) at 10 uM relative to control. Type of data set: functional.
In data set [2] the target is T1, 5-hydroxytryptamine receptor 2A. The data set is described as follows: Agonist activity at N-terminal HA-tagged human 5HT2A receptor. It counts as functional.
Data set [3] deals with T2, 5-hydroxytryptamine receptor 2C (Homo sapiens, UniProt P28335).
T2 sequence (P28335 whole entry): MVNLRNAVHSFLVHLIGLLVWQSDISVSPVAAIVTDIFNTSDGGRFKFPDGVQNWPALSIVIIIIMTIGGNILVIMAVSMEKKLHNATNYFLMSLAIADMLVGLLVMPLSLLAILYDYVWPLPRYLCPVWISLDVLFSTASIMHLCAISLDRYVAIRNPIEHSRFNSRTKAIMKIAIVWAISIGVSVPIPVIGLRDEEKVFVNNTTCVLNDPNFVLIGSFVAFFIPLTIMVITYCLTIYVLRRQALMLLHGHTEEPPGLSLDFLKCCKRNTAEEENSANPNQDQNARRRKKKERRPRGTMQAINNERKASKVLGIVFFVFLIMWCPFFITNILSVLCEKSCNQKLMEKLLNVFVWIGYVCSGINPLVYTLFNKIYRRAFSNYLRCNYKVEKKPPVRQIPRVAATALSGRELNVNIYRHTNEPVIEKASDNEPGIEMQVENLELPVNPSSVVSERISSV
The data set is described as follows: Agonist activity at 5HT2C receptor (unknown origin). Type of data set: functional.

For data set [4], the target named is T3, 5-hydroxytryptamine receptor 2C (Homo sapiens) (UniProt P28335).
T3 sequence (whole entry): T2 sequence (P28335 whole entry)
Description: Agonist activity at 5HT2C receptor (unknown origin) at 10 uM relative to control. It counts as functional. Particulars: filed as agonist.

For data set [5], the target named is T4, 5-hydroxytryptamine receptor 2B (Homo sapiens, UniProt P41595). Description: Agonist activity at 5HT2B (unknown origin) at 1 uM relative to control. Type of data set: functional.
In data set [6] the target is T4, 5-hydroxytryptamine receptor 2B. The data set is described as follows: Agonist activity at 5HT2B (unknown origin). Type of data set: functional.
The target in data set [7] is T1, 5-hydroxytryptamine receptor 2A. Description: Agonist activity at N-terminal HA-tagged human 5HT2A receptor at 1 uM relative to control. It counts as functional.
Data set [8] deals with T3, 5-hydroxytryptamine receptor 2C (Homo sapiens). Description: Agonist activity at 5HT2C receptor (unknown origin) at 1 uM relative to control. It counts as functional. Particulars: filed as agonist.
The species named for data set [9] is Homo sapiens. Description: Selectivity ratio of Ki for sigma 2 receptor (unknown origin) to Ki for sigma 1 receptor assessed as inhibition of constant.
The target in data set [10] is Sigma non-opioid intracellular receptor 1 (Homo sapiens, UniProt Q99720). The data set is described as follows: Binding affinity to sigma1 receptor (unknown origin) assessed as inhibition constant.
Data set [11] has as its target Sigma intracellular receptor 2 (Homo sapiens, UniProt Q5BJF2). Description: Binding affinity to sigma 2 receptor (unknown origin) assessed as inhibition constant.
Data set [12] deals with T1, 5-hydroxytryptamine receptor 2A. Description: Agonist activity at human 5HT2A receptor. It counts as functional.
Data set [13] addresses T5, Melatonin receptor type 1B (Homo sapiens, UniProt P49286).
T5 sequence (P49286 whole entry): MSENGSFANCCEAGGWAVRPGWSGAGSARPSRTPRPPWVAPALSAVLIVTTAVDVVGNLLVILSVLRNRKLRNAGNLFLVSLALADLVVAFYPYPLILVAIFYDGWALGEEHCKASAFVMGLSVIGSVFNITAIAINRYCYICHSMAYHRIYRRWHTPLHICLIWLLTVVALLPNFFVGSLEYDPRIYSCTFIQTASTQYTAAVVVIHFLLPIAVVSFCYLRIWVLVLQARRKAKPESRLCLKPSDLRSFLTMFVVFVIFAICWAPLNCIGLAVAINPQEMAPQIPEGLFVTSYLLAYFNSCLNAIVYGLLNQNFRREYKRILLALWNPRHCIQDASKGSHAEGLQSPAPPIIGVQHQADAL
The data set is described as follows: Binding affinity to MT2 receptor (unknown origin) assessed as inhibition constant.

The nature of data set [14]: Binding affinity to MT1 receptor (unknown origin) assessed as inhibition constant. Further details: species or system Homo sapiens.
Data set [15] in a line: Terminal elimination half life in Sprague-Dawley rat at 12 mg/kg, po. Type of data set: ADME, organism-based. As to conditions: in vivo, read-out: beta t1/2 (converted).
Data set [16] in a line: Effect on emotional-affective response in USV-induced Sprague-Dawley rat assessed as reduction in ultrasonic vocalization. It counts as functional. Particulars: read-out: MED.
The species entered for data set [17] is Mus musculus. The data set is described as follows: Antidepressant activity in USV-induced Swiss albino mouse model of depression assessed as minimum effective dose. Type of data set: functional. Particulars: read-out: MED.
The species entered for data set [18] is Mus musculus. Description: Antidepressant activity in Swiss albino mouse assessed as minimum effective dose by tail suspension test. Type of data set: functional. As to conditions: read-out: MED.

T1 sequence (P28223 whole entry): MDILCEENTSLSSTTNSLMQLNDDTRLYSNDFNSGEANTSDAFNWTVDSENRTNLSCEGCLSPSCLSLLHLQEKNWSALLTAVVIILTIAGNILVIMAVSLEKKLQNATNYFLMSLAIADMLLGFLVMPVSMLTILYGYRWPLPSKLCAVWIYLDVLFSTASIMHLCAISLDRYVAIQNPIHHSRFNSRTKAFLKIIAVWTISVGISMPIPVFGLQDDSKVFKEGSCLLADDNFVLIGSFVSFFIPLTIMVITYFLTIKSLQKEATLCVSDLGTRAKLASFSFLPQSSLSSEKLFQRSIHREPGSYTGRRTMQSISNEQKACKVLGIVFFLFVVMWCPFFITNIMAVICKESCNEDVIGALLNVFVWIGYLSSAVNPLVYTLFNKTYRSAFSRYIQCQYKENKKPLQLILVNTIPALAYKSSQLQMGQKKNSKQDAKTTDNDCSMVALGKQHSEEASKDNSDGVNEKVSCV
T4 sequence (P41595 whole entry): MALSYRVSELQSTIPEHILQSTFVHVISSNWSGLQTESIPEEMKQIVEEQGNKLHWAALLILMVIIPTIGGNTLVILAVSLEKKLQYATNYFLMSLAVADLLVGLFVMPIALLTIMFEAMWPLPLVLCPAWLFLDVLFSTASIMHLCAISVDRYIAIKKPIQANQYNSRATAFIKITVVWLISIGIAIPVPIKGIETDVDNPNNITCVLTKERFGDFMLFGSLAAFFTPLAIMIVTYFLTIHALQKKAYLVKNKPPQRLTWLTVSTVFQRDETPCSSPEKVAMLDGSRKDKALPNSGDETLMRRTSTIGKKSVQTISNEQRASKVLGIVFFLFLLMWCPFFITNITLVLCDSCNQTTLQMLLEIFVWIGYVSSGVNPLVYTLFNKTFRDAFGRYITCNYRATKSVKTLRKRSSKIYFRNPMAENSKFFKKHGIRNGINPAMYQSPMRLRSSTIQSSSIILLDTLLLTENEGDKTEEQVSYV
Chain of Sigma intracellular receptor 2 (Q5BJF2 whole entry): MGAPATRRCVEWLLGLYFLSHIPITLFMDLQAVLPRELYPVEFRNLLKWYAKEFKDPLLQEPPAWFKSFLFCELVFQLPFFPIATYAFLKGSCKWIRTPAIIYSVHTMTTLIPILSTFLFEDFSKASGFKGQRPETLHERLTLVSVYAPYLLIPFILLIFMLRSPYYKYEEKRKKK
Chain of Sigma non-opioid intracellular receptor 1 (Q99720 whole entry): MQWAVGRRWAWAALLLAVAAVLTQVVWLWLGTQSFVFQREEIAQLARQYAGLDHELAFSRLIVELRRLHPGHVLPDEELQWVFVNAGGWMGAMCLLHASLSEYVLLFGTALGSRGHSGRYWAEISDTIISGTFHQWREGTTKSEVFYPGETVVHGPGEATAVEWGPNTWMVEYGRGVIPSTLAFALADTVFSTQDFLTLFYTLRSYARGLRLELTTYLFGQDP

The Emax is the maximal effect, on the per cent scale that the assay sets. For orientation: pEC50 means −log10 of the EC50, conventionally taken in molar units. Lower therefore signals a large EC50. For the compound `NC[C@@H]1C[C@@H]1c1cc(O)ccc1OCC1CC1`, the maximum response (Emax) in data set [1] worked out at 18%; in data set [4], 70%. For the same compound, the negative-log EC50 (pEC50) in [2] is 6.43; in data set [3], 8.03.
Take `NC[C@@H]1C[C@@H]1c1cc(F)ccc1OCC1CC1`: the maximum response (Emax) stood at 21% in data set [5], 29% in data set [7] and 71% in [8]. For the same compound, the pEC50 is 6.54 in data set [6], 6.05 in data set [2] and 7.68 in data set [3].
The term pKi denotes the Ki on a negative log10 scale, so that one unit is a factor of ten. `COC(=O)[C@]1(c2ccccc2)C[C@@H]1CN1CCC(O)(c2ccc(Cl)cc2)CC1`: in data set [9], the Selectivity ratio is 5.5. Moreover, the values for the negative logarithm of the Ki (pKi) in data set [10] and in data set [11] were 8.82 and 7.66, respectively.
Take `CC1(C)Cc2cc(Cl)cc([C@H]3C[C@H]3CN)c2O1`: the pEC50 in data set [12] was 6.22.
For the compound `CCC(=O)NC[C@@H]1C[C@H]1c1cccc2c1CCO2` [TASIMELTEON], the pKi was 10.15 in data set [13] and 9.52 in data set [14].
With `CCN(CC)C(=O)[C@@]1(c2ccccc2)C[C@H]1CN` [LEVOMILNACIPRAN], the half-life in data set [15] is 12 h. Besides, the minimal effective dose in data set [16] stood at 5 mg/kg; in data set [17], 20 mg/kg; in [18], 2.5 mg/kg.
